Test results published in publication PMC5988656, “Phase I studies of AZD1208, a proviral integration Moloney virus kinase inhibitor in solid and haematological cancers” (British Journal of Cancer, 2018).

Tests used:
[1] = tested on: AML blasts; test: RPPA protein profiling in AML blasts during therapy; type: in vivo, human; conditions: samples from six patients
Description: In the AML study, a protein profiling analysis was carried out on primary blasts obtained from peripheral blood of patients (n = 6) before and during therapy with AZD1208. Due to time-sensitive aspects of the analysis, only patients from the MD Anderson Cancer Center (MDACC, Houston, TX, USA) were eligible. Whole blood was collected in heparinised tubes. Leukaemia cells were then isolated using Ficoll–Hypaque (specific gravity, 1.086; Life Technologies, Grand Island, NY, USA) density gradient separation, as previously described.[15] Cell number and mean cell volume were determined using a Coulter Channelyzer (Coulter Electronics, Hialeah, FL, USA).
AML blasts isolated from patients during therapy with AZD1208 were harvested and submitted for reverse phase protein array (RPPA) analysis to evaluate protein level changes across a set of 171 antibodies,[16] graphed using GraphPad Prism software (GraphPad Software, Inc., San Diego, CA, USA).

[2] = tested on: patients with AML or advanced solid tumours; test: Both dose-escalation studies pooled: adverse events; type: in vivo, human
Description: Safety and tolerability were assessed from the time of informed consent until the end of follow-up (defined as 30 and 28 days after study treatment was discontinued for the AML and solid tumour studies, respectively) by evaluation of adverse events (AEs), vital signs, ECGs and laboratory assessments. The CTCAE (version 4.0) was utilised to grade all AE events.
AEs were summarised by Medical Dictionary for Regulatory Activities (MedDRA) system organ class, MedDRA preferred term and CTCAE grade. Summary statistics of mean, median, standard deviation, minimum, maximum and number of observations were used.

[3] = tested on: MYC-driven prostate cancer models; design: method as in PMID 25505253; conditions: cited from earlier work
[4] = tested on: pBAD S112; test: PD: phosphorylated BAD at S112 by MesoScale Discovery ELISA, AML study; type: in vivo, human
Description: (§1) For AZD1208 PD evaluations, bone marrow aspirates were collected (pretreatment and Cycle 1, Day 1, 2–6 h following administration of AZD1208) and peripheral blood samples were collected (pretreatment on Cycle 1, Day 1; and on-treatment at Cycle 1, Day 1 at 3, 6 and 24 h post-dose; Cycle 1, Day 14 at pre-dose, 3 and 6 h post-dose). Mononuclear cells were isolated, and protein lysates prepared, for subsequent analysis of phosphorylated BAD at S112 by MesoScale Discovery ELISA and phosphorylation of 4E-BP1 at S65 by NanoPro immunoassay [unpublished data: McEachern et al. 2018, manuscript in preparation]. Samples were considered evaluable when the baseline biomarker levels were above the background signal (as defined by buffer-only negative control samples) and within the linear range of assay. Additionally, only blood samples containing detectable blasts were considered for analysis.

[5] = tested on: p4E-BP1 S65; test: PD: phosphorylation of 4E-BP1 at S65 by NanoPro immunoassay, AML study; type: in vivo, human
Description: as §1

[6] = tested on: advanced solid tumours; test: Solid tumour study: tumour response (RECIST v.1.1); type: in vivo, human; conditions: for Best response: CR / Best response: Death / Best response: Not evaluable / Best response: Partial response / Best response: Progression / Best response: Stable disease ≥6 weeks: RECIST criteria
Description: In the solid tumour study, responses were evaluated using RECIST v.1.1. Contrast-enhanced CTs of the chest, abdomen, pelvis and neck were performed at screening (≤28 days before the start of study treatment), every 6 weeks (±1 week) up to 12 weeks, and then every 12 weeks (±1 week) until discontinuation of study treatment or withdrawal of consent, starting from Day 1 of Cycle 1.

[7] = tested on: relapsed/refractory AML; test: AML study: antileukaemic activity (IWG response criteria); type: in vivo, human
Text: The antileukaemic activity in AML was according to the International Working Group (IWG) response criteria for AML.[17] Response criteria were modified such that an M-1 marrow was defined as 1% to ≤5% and a partial response as >5% to 25%.[18]

[8] = evaluable bone marrow samples, single dose
[9] = Investigator assessed, 120 mg, n=4
[10] = Investigator assessed, 240 mg, n=6
[11] = Investigator assessed, 480 mg, n=6
[12] = Investigator assessed, 700 mg, n=7
[13] = Investigator assessed, 900 mg, n=9
[14] = Modified Cheson criteria, 120 mg, n=4
[15] = Modified Cheson criteria, 240 mg, n=6
[16] = Modified Cheson criteria, 480 mg, n=6
[17] = Modified Cheson criteria, 700 mg, n=7
[18] = Modified Cheson criteria, 900 mg, n=9

N[C@@H]1CCCN(c2c(/C=C3\SC(=O)NC3=O)cccc2-c2ccccc2)C1 [AZD1208]
Patients with reductions in 4E-BP1 S65 (RPPA) [1]: three
Patients with reductions in BAD S112 (RPPA) [1]: four
Patients who experienced adverse events [2]: 98.5%
Patients with gastrointestinal adverse events [2]: 92.5%
Tumour growth [3]: significantly decreased tumour growth
Patients with reductions in pBAD S112 [4, 8]: 7/17
Patients with ≥50% reduction from baseline of pBAD S112 ([4]; peripheral blood, all dose levels): 9/10
Patients with reductions in p4E-BP1 S65 [5, 8]: 3/11
Patients with decreases in p4E-BP1 S65 ([5]; peripheral blood samples): 4/7
Discontinued study treatment due to disease progression, patients ([6]; 35 patients): 65.7%
Best response: CR ([6]; 120 mg, n=3): 0 n (%)
Best response: Death ([6]; 120 mg, n=3): 0 n (%)
Best response: Not evaluable ([6]; 120 mg, n=3): 0 n (%)
Best response: Partial response ([6]; 120 mg, n=3): 0 n (%)
Best response: Progression ([6]; 120 mg, n=3): 1 (33.3) n (%)
Best response: Stable disease ≥6 weeks ([6]; 120 mg, n=3): 2 (66.7) n (%)
Best response: CR ([6]; 240 mg, n=7): 0 n (%)
Best response: Death ([6]; 240 mg, n=7): 0 n (%)
Best response: Not evaluable ([6]; 240 mg, n=7): 0 n (%)
Best response: Partial response ([6]; 240 mg, n=7): 0 n (%)
Best response: Progression ([6]; 240 mg, n=7): 2 (28.6) n (%)
Best response: Stable disease ≥6 weeks ([6]; 240 mg, n=7): 5 (71.4) n (%)
Best response: CR ([6]; 360 mg, n=5): 0 n (%)
Best response: Death ([6]; 360 mg, n=5): 0 n (%)
Best response: Not evaluable ([6]; 360 mg, n=5): 1 (20.0) n (%)
Best response: Partial response ([6]; 360 mg, n=5): 0 n (%)
Best response: Progression ([6]; 360 mg, n=5): 3 (60.0) n (%)
Best response: Stable disease ≥6 weeks ([6]; 360 mg, n=5): 1 (20.0) n (%)
Best response: CR ([6]; 540 mg, n=7): 0 n (%)
Best response: Death ([6]; 540 mg, n=7): 0 n (%)
Best response: Not evaluable ([6]; 540 mg, n=7): 1 (14.3) n (%)
Best response: Partial response ([6]; 540 mg, n=7): 0 n (%)
Best response: Progression ([6]; 540 mg, n=7): 3 (42.9) n (%)
Best response: Stable disease ≥6 weeks ([6]; 540 mg, n=7): 3 (42.9) n (%)
Best response: CR ([6]; 700 mg, n=6): 0 n (%)
Best response: Death ([6]; 700 mg, n=6): 1 (16.7) n (%)
Best response: Not evaluable ([6]; 700 mg, n=6): 2 (33.3) n (%)
Best response: Partial response ([6]; 700 mg, n=6): 0 n (%)
Best response: Progression ([6]; 700 mg, n=6): 3 (50.0) n (%)
Best response: Stable disease ≥6 weeks ([6]; 700 mg, n=6): 1 (16.7) n (%)
Best response: CR ([6]; 800 mg, n=5): 0 n (%)
Best response: Death ([6]; 800 mg, n=5): 0 n (%)
Best response: Not evaluable ([6]; 800 mg, n=5): 1 (20.0) n (%)
Best response: Partial response ([6]; 800 mg, n=5): 0 n (%)
Best response: Progression ([6]; 800 mg, n=5): 3 (60.0) n (%)
Best response: Stable disease ≥6 weeks ([6]; 800 mg, n=5): 1 (20.0) n (%)
Best objective response: progression ([6]; RECIST, all doses): 14 n
Best objective response: stable disease for ≥6 weeks ([6]; RECIST, all doses): 13 n
Objective response rate ([6]; RECIST, all doses): 0%
Patients with stable disease at Week 12 ([6]; five patients evaluable): four
Prostate-specific antigen (PSA) levels ([6]; one patient with prostate cancer): considerable reduction
Discontinued study treatment due to a lack of therapeutic response, patients ([7]; 32 eligible patients): 59.4%
Best response: CR [7, 9]: 0 n (%)
Best response: CRi [7, 9]: 0 n (%)
Best response: Morphologic leukaemia free [7, 9]: 0 n (%)
Best response: Non-response [7, 9]: 3 (75.0) n (%)
Best response: Partial remission [7, 9]: 0 n (%)
Best response: CR [7, 10]: 0 n (%)
Best response: CRi [7, 10]: 0 n (%)
Best response: Morphologic leukaemia free [7, 10]: 0 n (%)
Best response: Non-response [7, 10]: 3 (50.0) n (%)
Best response: Partial remission [7, 10]: 0 n (%)
Best response: CR [7, 11]: 0 n (%)
Best response: CRi [7, 11]: 0 n (%)
Best response: Morphologic leukaemia free [7, 11]: 0 n (%)
Best response: Non-response [7, 11]: 3 (50.0) n (%)
Best response: Partial remission [7, 11]: 0 n (%)
Best response: CR [7, 12]: 0 n (%)
Best response: CRi [7, 12]: 0 n (%)
Best response: Morphologic leukaemia free [7, 12]: 0 n (%)
Best response: Non-response [7, 12]: 1 (14.3) n (%)
Best response: Partial remission [7, 12]: 0 n (%)
Best response: CR [7, 13]: 0 n (%)
Best response: CRi [7, 13]: 0 n (%)
Best response: Morphologic leukaemia free [7, 13]: 0 n (%)
Best response: Non-response [7, 13]: 2 (22.2) n (%)
Best response: Partial remission [7, 13]: 0 n (%)
Best response: CR [7, 14]: 0 n (%)
Best response: CRi [7, 14]: 0 n (%)
Best response: Morphologic leukaemia free [7, 14]: 0 n (%)
Best response: Non-response [7, 14]: 4 (100) n (%)
Best response: Partial remission [7, 14]: 0 n (%)
Best response: CR [7, 15]: 0 n (%)
Best response: CRi [7, 15]: 0 n (%)
Best response: Morphologic leukaemia free [7, 15]: 0 n (%)
Best response: Non-response [7, 15]: 6 (100) n (%)
Best response: Partial remission [7, 15]: 0 n (%)
Best response: CR [7, 16]: 0 n (%)
Best response: CRi [7, 16]: 0 n (%)
Best response: Morphologic leukaemia free [7, 16]: 0 n (%)
Best response: Non-response [7, 16]: 6 (100) n (%)
Best response: Partial remission [7, 16]: 0 n (%)
Best response: CR [7, 17]: 0 n (%)
Best response: CRi [7, 17]: 0 n (%)
Best response: Morphologic leukaemia free [7, 17]: 0 n (%)
Best response: Non-response [7, 17]: 7 (100) n (%)
Best response: Partial remission [7, 17]: 0 n (%)
Best response: CR [7, 18]: 0 n (%)
Best response: CRi [7, 18]: 0 n (%)
Best response: Morphologic leukaemia free [7, 18]: 0 n (%)
Best response: Non-response [7, 18]: 9 (100) n (%)
Best response: Partial remission [7, 18]: 0 n (%)
Clinical responses according to IWG criteria ([7]; all doses): no clinical responses
